Test results taken from US6486128B1, “Method of using emamectin to treat fish parasites” (Schering-Plough Veterinary Corporation, priority 1999, dated 2002).
Several values for one entry are separate records, joined by “and”; a condition that tells them apart may be missing. Equal entries are not always repeated.

Assays:
[1] = system: sea lice, Lepeophtheirus salmonis; assay: Dose confirmation study I: efficacy of emamectin benzoate in feed against induced sea lice infestations on Atlantic salmon; type: in vivo; details: for Percentage fish mortality: mortality attributed to sea lice damage, includes culled fish
Description: (§1) Three studies were carried out at the Institute of Aquaculture Marine Environmental Research Laboratory in Machrihanish, Scotland. Atlantic salmon, Salmo salar L., post-smolts were obtained from a disease free stock and acclimatised at the test facility.
(§2) Fish were held in replicate groups in plastic fiber tanks, each with a volume of 0.54 m^3. Each tank was supplied with natural sea water at ambient temperature (7-14° C.) and salinity (30-35 ppt), at flow rates of approximately 18 l. min^−1. The tanks were fitted with mesh screens over the water outlet to retain uneaten fish pellets. Fish were observed daily for behavior and adverse drug reactions. Fish mortalities and the occurrence of gross sea lice damage were also recorded.
(§3) Sea lice were collected during harvesting on commercial salmon farms on the west coast of Scotland. Egg strings collected from gravid female lice were incubated in sea water at ambient temperature and within a salinity range of 32-35 ppt. Once the hatched larvae reached the copepodite stage, 38-170 copepodites per fish were introduced into each of four replicate tanks of fish and the water supply to each tank was turned off for approximately three hours to allow attachment of copepodites to the fish. This was repeated 4-5 times at intervals of 3-5 days until chalimus stages I, II, III and IV were present. Chalimus numbers were evaluated at day −1 or day −2 pre-treatment, on sub-samples of fish (N=6-9 fish per tank). At this point, fish were infested with pre-adult and adult lice, by adding 5-10 lice per fish to each tank. Water supplies to each tank were turned off for around one hour until all the lice had attached to the fish. Pre-treatment lice numbers were based on a sub-sample of the total population and presented as the mean number of chalimus per fish. Fish were then randomly re-distributed from the four original tanks to each control or treatment tank, as described in the experimental design for each study, and no further infestations were carried out during or after treatment.
(§4) The basal ration was Fulmar™ (BOCM Pauls Ltd.) 3.5 or 5 mm salmon feed pellets. Emamectin benzoate was dissolved in propylene glycol and mixed with fish oil prior to top coating the feed pellets. Control feeds were prepared in the same way with propylene glycol and fish oil. Treatment was administered at nominal dose rates of 0, 25, 50 and 100 μg kg^−1 fish biomass per day, at a feed rate of 0.5% biomass, for a period of seven consecutive days (days 0-6). Actual daily feed consumption was measured in each tank by collecting the uneaten feed pellets approximately thirty minutes after administration and subtracting the number of pellets from the daily ration fed. The mean dose consumed was calculated for each group as follows: [formula] Mean feed consumption (%)×nominal dose rate (μg·kg^−1)=Mean dose consumed (μg·kg^−1)
(§5) Evaluation of sea lice numbers was carried out at 7, 14 and 21 days from the start of treatment. Fish were anaesthetised in 40 mg·l^−1 ethyl-P-aminobenzoate (benzocaine) and each fish examined under a low power microscope. Lice were identified as chalimus I-IV, pre-adult I or II and adult stages. Pre-adults and adult lice were additionally identified as males or females. The numbers of each developmental stage were recorded. Any lice which detached in the anaesthetic solution were included in the counts and reattached to the fish after transferring them to fresh seawater. The fish were returned to the holding tanks after sampling and the same fish were evaluated at days 7, 14 and 21.
The water temperature was 12-14° C. and salinity was 33-35 ppt. Pre-treatment, mean fish weights were 224 g (±43 g S.D). Emamectin benzoate was administered at nominal daily dose rates of 0, 25, and 50 μg kg^−1 biomass. There were three replicate tanks per treatment with 15 fish per tank. […]

[2] = system: sea lice, Lepeophtheirus salmonis; assay: Dose titration study: efficacy of emamectin benzoate in feed against induced sea lice infestations on Atlantic salmon; type: in vivo; details: for Percentage fish mortality: mortality attributed to sea lice damage, includes culled fish
Description: as §1, §2, §3, §4, §5
The water temperature was 7-10° C. and salinity was 33-34 ppt. Pre-treatment, mean fish weights were 192 g (±30 g S.D). Emamectin benzoate was administered at nominal daily dose rates of 0, 25, 50 and 100 μg kg^−1 fish biomass. There were two replicate tanks per treatment with a sample size of 19 or 20 fish per tank. […]

[3] = nominal dose 25 μg·kg^−1/day (consumed 20.2) in feed Day 0-6, Day 7
[4] = nominal dose 25 μg·kg^−1/day (consumed 20.2) in feed Day 0-6, day 21
[5] = nominal dose 25 μg·kg^−1/day in feed Day 0-6, Day 14
[6] = nominal dose 25 μg·kg^−1/day in feed Day 0-6, Day 21
[7] = nominal dose 50 μg·kg^−1/day (consumed 44.3) in feed Day 0-6, Day 7
[8] = nominal dose 50 μg·kg^−1/day (consumed 44.3) in feed Day 0-6, day 21
[9] = nominal dose 50 μg·kg^−1/day in feed Day 0-6, Day 14
[10] = nominal dose 50 μg·kg^−1/day in feed Day 0-6, Day 21
[11] = nominal dose 25 μg·kg^−1/day (consumed 21.5) in feed Day 0-6, Day 7
[12] = nominal dose 25 μg·kg^−1/day (consumed 21.5) in feed Day 0-6, day 21
[13] = nominal dose 50 μg·kg^−1/day (consumed 45.0) in feed Day 0-6, Day 7
[14] = nominal dose 50 μg·kg^−1/day (consumed 45.0) in feed Day 0-6, day 21
[15] = nominal dose 100 μg·kg^−1/day (consumed 91.0) in feed Day 0-6, Day 7
[16] = nominal dose 100 μg·kg^−1/day (consumed 91.0) in feed Day 0-6, day 21
[17] = nominal dose 100 μg·kg^−1/day in feed Day 0-6, Day 14
[18] = nominal dose 100 μg·kg^−1/day in feed Day 0-6, Day 21

## emamectin benzoate
[1]; [3]
  % Reduction relative to controls (Total lice): 43.8%
  Mean Total lice (± S.D): 34.2 ± 15.8
  Mean chalimus (± S.D): 1.8 ± 1.7
  Mean motiles (± S.D): 32.4 ± 15.4
[1]; nominal dose 25 μg·kg^−1/day (consumed 20.2) in feed Day 0-6, Day 21
  % Reduction relative to controls (Total lice): 82% and 81.9%
[1]; [4]
  Percentage of fish with no lice present (chalimus or motiles): 3%
  Percentage of fish with no motile lice present: 6.1%
[1]; [5]
  % Reduction relative to controls (Total lice): 76.0%
  Mean Total lice (± S.D): 9.8 ± 4.4
  Mean chalimus (± S.D): 0.30
  Mean motiles (± S.D): 9.5 ± 4.4
[1]; [6]
  Mean Total lice (± S.D): 4.9 and 4.9 ± 3.1
  Mean chalimus (± S.D): 0
  Mean motiles (± S.D): 4.9 ± 3.1
[1]; nominal dose 25 μg·kg^−1/day
  Percentage fish mortality: 31%
[1]; [7]
  % Reduction relative to controls (Total lice): 53.8%
  Mean Total lice (± S.D): 28.1 ± 13.1
  Mean chalimus (± S.D): 3.2 ± 2.2
  Mean motiles (± S.D): 24.9 ± 13.2
[1]; nominal dose 50 μg·kg^−1/day (consumed 44.3) in feed Day 0-6, Day 21
  % Reduction relative to controls (Total lice): 94% and 94.3%
[1]; [8]
  Percentage of fish with no lice present (chalimus or motiles): 28.6%
  Percentage of fish with no motile lice present: 28.6%
[1]; [9]
  % Reduction relative to controls (Total lice): 88.0%
  Mean Total lice (± S.D): 4.9 ± 2.7
  Mean chalimus (± S.D): 0.6
  Mean motiles (± S.D): 4.3 ± 2.6
[1]; [10]
  Mean Total lice (± S.D): 1.6 and 1.6 ± 1.3
  Mean chalimus (± S.D): 0
  Mean motiles (± S.D): 1.6 ± 1.4
[1]; nominal dose 50 μg·kg^−1/day
  Percentage fish mortality: 27%
[1]; treated groups (25 and 50 μg kg^−1), day 7
  reduction of total mean numbers of lice compared to the control groups: 44-54%
[1]; treated groups (25 and 50 μg kg^−1), day 21
  total lice numbers lower than in the control groups: 82-94%
[2]; all treatment groups (25, 50, 100 μg kg^−1), day 7
  reduction of total numbers of lice per fish compared to the control groups: 35.4-37.5%
[2]; [11]
  % Reduction relative to controls (Total lice): 36.2%
  Mean Total lice (± S.D): 32.6 ± 10.7
  Mean chalimus (± S.D): 20.9 ± 8.6
  Mean motiles (± S.D): 11.7 ± 6.0
[2]; nominal dose 25 μg·kg^−1/day (consumed 21.5) in feed Day 0-6, Day 21
  % Reduction relative to controls (Total lice): 89.8%
[2]; [12]
  Percentage of fish with no lice present (chalimus or motiles): 13.8%
  Percentage of fish with no motile lice present: 55.0%
[2]; [5]
  % Reduction relative to controls (Total lice): 70.8%
  Mean Total lice (± S.D): 13.1 ± 6.9
  Mean chalimus (± S.D): 9.7 ± 3.9
  Mean motiles (± S.D): 3.4 ± 6.4
[2]; [6]
  Mean Total lice (± S.D): 3.5 ± 2.7
  Mean chalimus (± S.D): 2.4 ± 1.9
  Mean motiles (± S.D): 1.1 ± 2.2
[2]; nominal dose 25 μg·kg^−1/day
  Percentage fish mortality: 0%
[2]; [13]
  % Reduction relative to controls (Total lice): 37.5%
  Mean Total lice (± S.D): 31.9 ± 11.4
  Mean chalimus (± S.D): 24.8 ± 10.3
  Mean motiles (± S.D): 7.1 ± 4.1
[2]; nominal dose 50 μg·kg^−1/day (consumed 45.0) in feed Day 0-6, Day 21
  % Reduction relative to controls (Total lice): 95.2%
[2]; [14]
  Percentage of fish with no lice present (chalimus or motiles): 22.5%
  Percentage of fish with no motile lice present: 87.5%
[2]; [9]
  % Reduction relative to controls (Total lice): 70.3%
  Mean Total lice (± S.D): 13.4 ± 5.9
  Mean chalimus (± S.D): 12.4 ± 3.5
  Mean motiles (± S.D): 1.0 ± 1.2
[2]; [10]
  Mean Total lice (± S.D): 1.7 and 1.7 ± 1.3
  Mean chalimus (± S.D): 1.6 ± 1.5
  Mean motiles (± S.D): 0.1 ± 0.3
[2]; nominal dose 50 μg·kg^−1/day
  Percentage fish mortality: 0%
[2]; [15]
  % Reduction relative to controls (Total lice): 35.4%
  Mean Total lice (± S.D): 33.0 ± 10.7
  Mean chalimus (± S.D): 29.0 ± 9.8
  Mean motiles (± S.D): 4.0 ± 3.6
[2]; nominal dose 100 μg·kg^−1/day (consumed 91.0) in feed Day 0-6, Day 21
  % Reduction relative to controls (Total lice): 95.8%
[2]; [16]
  Percentage of fish with no lice present (chalimus or motiles): 28.2%
  Percentage of fish with no motile lice present: 87.0%
[2]; [17]
  % Reduction relative to controls (Total lice): 66.4%
  Mean Total lice (± S.D): 15.1 ± 5.8
  Mean chalimus (± S.D): 14.1 ± 5.5
  Mean motiles (± S.D): 1.0 ± 3.2
[2]; [18]
  Mean Total lice (± S.D): 1.5 ± 1.6
  Mean chalimus (± S.D): 1.2 ± 1.2
  Mean motiles (± S.D): 0.3 ± 1.0
[2]; nominal dose 100 μg·kg^−1/day
  Percentage fish mortality: 2.5%
[2]; treated groups (25, 50, 100 μg kg^−1), day 21
  mean numbers of motile lice in the treated groups: 0.1-1.1 per fish
